Read-outs that look alike come from different tables or passages of the source.
Experiments:
[1] = target: Recombinant human MALT-1 (amino acids 340-824) (Homo sapiens (Human), UniProt Q9UDY8); assay: MALT-1 inhibition assay (fluorogenic substrate Ac-LRSR-Rh110-DP); type: biochemical; conditions: recombinant human MALT-1, substrate Ac-LRSR-Rh110-DP
Procedure, shortened: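 MALT-1 at 3 nM final was reacted with 10 μM Ac-LRSR-Rh110-DP, with substrate addition starting the reaction. Incubation ran 60 minutes at 25° C in the dark. Percent inhibition from fluorescence across doses was fitted to a 4-parameter logistic to give IC50.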

[2] = test system: IL-2 secretion by human effector memory T cells (TEM); assay: Effector memory T cells IL-2 release assay; type: cell-based; conditions: human CD4+ effector memory T cells, CD3/CD28 bead stimulation, 24 h, read-out: CD4TC IL2 IC50
Procedure, shortened: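 Human CD4+ effector memory T cells from healthy-donor buffy coats were stimulated with anti-CD3/CD28 Dynabeads and exposed to 10 semi-log compound doses (0.1% DMSO) for 24 h at 37 °C. Supernatant IL-2 was measured by HTRF, and IC50 came from a 4-parameter logistic fit to maximal IL-2. Viability was checked by flow cytometry.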

Sequence of Recombinant human MALT-1 (amino acids 340-824) (Q9UDY8 340-824): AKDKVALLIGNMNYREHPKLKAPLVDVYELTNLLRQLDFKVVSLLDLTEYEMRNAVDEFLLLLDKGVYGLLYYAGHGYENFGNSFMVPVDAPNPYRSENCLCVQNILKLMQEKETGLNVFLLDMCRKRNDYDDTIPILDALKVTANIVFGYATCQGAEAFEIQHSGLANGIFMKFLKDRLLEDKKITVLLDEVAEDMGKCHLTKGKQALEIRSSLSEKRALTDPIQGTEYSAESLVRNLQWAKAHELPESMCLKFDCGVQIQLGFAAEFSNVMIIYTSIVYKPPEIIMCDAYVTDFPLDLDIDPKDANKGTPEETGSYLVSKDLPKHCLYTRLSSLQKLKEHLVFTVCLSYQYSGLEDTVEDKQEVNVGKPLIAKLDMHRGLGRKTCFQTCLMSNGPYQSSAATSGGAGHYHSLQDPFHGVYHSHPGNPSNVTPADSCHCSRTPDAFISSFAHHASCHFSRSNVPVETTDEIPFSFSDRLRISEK

What does the source list for `COc1ccc2ncc3c(c2n1)CCCN3c1ccc([C@H](N(C)C(=O)C2CCS(=O)(=O)CC2)C(F)(F)F)cc1` [CPD0072532, N-methyl-1,1-dioxo-N-[(1S)-2,2,2-trifluoro-1-[4-(2-methoxy-9,10-dihydro-8H-pyrido[2,3-f][1,7]naphthyridin-7-yl)phenyl]ethyl]thiane-4-carboxamide]?
IC50 [1]: 0.217 µM; IC50 ([2]; T-cell): 0.548 µM

With `CN(C(=O)[C@H]1CC[S@@](=N)(=O)CC1)[C@@H](c1ccc(N2CCC3(CC3)c3c2cnc2cc(Cl)nn32)cc1)C(F)(F)F` [CPD0072772, (1rel-s,4rel-s)-N-[(1S)-1-(4-{4′-chloro-2′,3′,7′, 10′-tetraazaspiro[cyclopropane-1,13′-tricyclo[7.4.0.0^2,6]tridecane]-1′(9′),3′,5′,7′-tetraen-10′-yl}phenyl)-2,2,2-trifluoroethyl]-1-imino-N-methyl-1-oxo-1λ^6-thiane-4-carboxamide] as the compound, how does the IC50 [1] read?
The IC50 was 0.027 µM.

What about the IC50 ([2]; T-cell) of the same compound?
The IC50 was 0.027 µM.

What does the source list for `COCC1CCN(c2ccc([C@H](N(C)C(=O)C3CCS(=O)(=O)CC3)C(F)(F)F)cc2)c2cnc3cc(Cl)nn3c21` (stereo partly drawn) [CPD0072775]?
IC50 [1]: 0.094 µM; IC50 ([2]; T-cell): 0.143 µM

Which results are given for `CN(C(=O)CC1CS(=O)(=O)C1)[C@@H](c1ccc(N2CCCc3c2cnc2cc(Cl)nn32)cc1)C(F)(F)F` [CPD0072798, N-[(1S)-1-(4-{4-chloro-2,3,7,10-tetraazatricyclo[7.4.0.0^2,6]trideca-1(9),3,5,7-tetraen-10-yl}phenyl)-2,2,2-trifluoroethyl]-2-(1,1-dioxo-1λ^6-thietan-3-yl)-N-methylacetamide]?
IC50 [1]: 0.142 µM; IC50 ([2]; T-cell): 0.2 µM

With `CN(C(=O)C1C2CS(=O)(=O)CC21)[C@@H](c1ccc(N2CCCc3c2cnc2cc(Cl)nn32)cc1)C(F)(F)F` (stereo partly drawn) [CPD0072801, N-[(1S)-1-(4-{4-chloro-2,3,7,10-tetraazatricyclo[7.4.0.0^2,6]trideca-1(9),3,5,7-tetraen-10-yl}phenyl)-2,2,2-trifluoroethyl]-N-methyl-3,3-dioxo-3λ^6-thiabicyclo[3.1.0]hexane-6-carboxamide] as the compound, how does the IC50 [1] read?
Its IC50 is 0.095 µM.

And the IC50 ([2]; T-cell)?
Its IC50 is 0.147 µM.

For `CN(C(=O)C1CCS(=O)(=O)CC1)[C@@H](c1ccc(N2CCCc3c2cnc2cc(Cl)nn32)cc1)C(C)(F)F` [CPD0072803, N-[(1S)-1-(4-{4-chloro-2,3,7,10-tetraazatricyclo[7.4.0.0^2,6]trideca-1(9),3,5,7-tetraen-10-yl}phenyl)-2,2-difluoropropyl]-N-methyl-1,1-dioxo-1λ^6-thiane-4-carboxamide], which IC50 [1] is on record?
Its IC50 is 0.322 µM.

And the IC50 ([2]; T-cell)?
Its IC50 is 1.89 µM.

`CN(C(=O)N1CCS(=O)(=O)CC1)[C@@H](c1ccc(N2CCCc3c2cnc2cc(Cl)nn32)cc1)C(F)(F)F` [CPD0072804, N-[(1S)-1-(4-{4-chloro-2,3,7,10-tetraazatricyclo[7.4.0.0^2,6]trideca-1(9),3,5,7-tetraen-10-yl}phenyl)-2,2,2-trifluoroethyl]-N-methyl-1,1-dioxo-1λ^e-thiomorpholine-4-carboxamide] was tested. Which IC50 [1] did it give?
Its IC50 is 0.159 µM.

What about the IC50 ([2]; T-cell) of the same compound?
Its IC50 is 0.307 µM.

Which results are given for `CC1CCc2c(cnc3cc(Cl)nn23)N1c1ccc([C@H](N(C)C(=O)C2CCS(=O)(=O)CC2)C(F)(F)F)cc1` (stereo partly drawn) [CPD0072805, N-[(1S)-1-{4-[(11rel-S)-4-chloro-11-methyl-2,3,7,10-tetraazatricyclo[7.4.0.0^2,6]trideca-1(9),3,5,7-tetraen-10-yl]phenyl}-2,2,2-trifluoroethyl]-N-methyl-1,1-dioxo-1λ^6-thiane-4-carboxamide]?
IC50 [1]: 0.172 µM; IC50 [2]: 1.02 µM

How did the IC50 [1] turn out when `CC1CCc2c(cnc3cc(Cl)nn23)N1c1ccc([C@H](N(C)C(=O)C2CCS(=O)(=O)CC2)C(F)(F)F)cc1` (stereo partly drawn) [CPD0072806, N-[(1S)-1-{4-[(11rel-R)-4-chloro-11-methyl-2,3,7,10-tetraazatricyclo[7.4.0.0^2,6]trideca-1(9),3,5,7-tetraen-10-yl]phenyl}-2,2,2-trifluoroethyl]-N-methyl-1,1-dioxo-1λ^6-thiane-4-carboxamide] was run?
Its IC50 is 0.069 µM.

What about the IC50 [2] of the same compound?
The IC50 was 0.206 µM.

Which results are given for `Cc1cc(N2CCCc3c2cnc2cc(Cl)nn32)ccc1[C@H](N(C)C(=O)C1CCS(=O)(=O)CC1)C(F)(F)F` [CPD0072808, N-[(1S)-1-(4-{4-chloro-2,3,7,10-tetraazatricyclo[7.4.0.0^2,6]trideca-1(9),3,5,7-tetraen-10-yl}-2-methylphenyl)-2,2,2-trifluoroethyl]-N-methyl-1,1-dioxo-1λ^6-thiane-4-carboxamide]?
IC50 [1]: 0.127 µM; IC50 ([2]; T-cell): 0.237 µM

What does the source list for `CC1CCN(c2ccc([C@H](N(C)C(=O)[C@H]3CC[S@@](=N)(=O)CC3)C(F)(F)F)cc2)c2cnc3cc(Cl)nn3c21` (stereo partly drawn) [CPD0072812]?
IC50 [1]: 0.031 µM; IC50 ([2]; T-cell): 0.079 µM

What does the source list for `CC1CCN(c2ccc([C@H](N(C)C(=O)[C@H]3CC[S@](=N)(=O)CC3)C(F)(F)F)cc2)c2cnc3cc(Cl)nn3c21` (stereo partly drawn) [CPD0072813]?
IC50 [1]: 0.027 µM; IC50 ([2]; T-cell): 0.061 µM

`CO[C@@H](C)c1c(Nc2ccc(C(N(C)C(=O)C3CCS(=O)(=O)CC3)C(F)(F)F)cc2)cnn2cc(Cl)nc12` (stereo partly drawn) [CPD0072849] was tested. Which IC50 [1] did it give?
Its IC50 is 0.037 µM.

And the IC50 ([2]; T-cell)?
Its IC50 is 0.055 µM.

Which results are given for `CO[C@H](C)c1c(Nc2ccc([C@H](N(C)C(=O)C3CCS(=O)(=O)CC3)C(F)(F)F)cc2)cnn2cc(Cl)nc12` [CPD0072850]?
IC50 [1]: 0.043 µM; IC50 ([2]; T-cell): 0.114 µM

`CN(C(=O)[C@H]1C[C@@H](C(=O)O)C1)[C@@H](c1ccc(N2CCCc3c2cnc2cc(Cl)nn32)cc1)C(F)(F)F` [CPD0072934, (cis)-3-{[(1S)-1-(4-{4-chloro-2,3,7,10-tetraazatricyclo[7.4.0.0^2,6]trideca-1(9),3,5,7-tetraen-10-yl}phenyl)-2,2,2-trifluoroethyl](methyl)carbamoyl}cyclobutane-1-carboxylic acid] was tested. Which IC50 [1] did it give?
Its IC50 is 0.072 µM.

What about the IC50 ([2]; T-cell) of the same compound?
The IC50 was 0.422 µM.

For `CN(C(=O)C1CC2(C1)CS(=O)(=O)C2)[C@@H](c1ccc(N2CCCc3c2cnc2cc(Cl)nn32)cc1)C(F)(F)F` [CPD0072937, N-[(1S)-1-(4-{4-chloro-2,3,7,10-tetraazatricyclo[7.4.0.0^2,6]trideca-1(9),3,5,7-tetraen-10-yl}phenyl)-2,2,2-trifluoroethyl]-N-methyl-2,2-dioxo-2λ^6-thiaspiro[3.3]heptane-6-carboxamide], which IC50 [1] is on record?
Its IC50 is 0.075 µM.

What about the IC50 ([2]; T-cell) of the same compound?
Its IC50 is 0.093 µM.

Which IC50 [1] does the source give for `CN(C(=O)[C@@H]1C[C@H]2CC[C@@H](C1)S2(=O)=O)[C@@H](c1ccc(N2CCCc3c2cnc2cc(Cl)nn32)cc1)C(F)(F)F` [CPD0072938, (1R,3R,5S)-N-[(1S)-1-(4-{4-chloro-2,3,7,10-tetraazatricyclo[7.4.0.0^2,6]trideca-1(9),3,5,7-tetraen-10-yl}phenyl)-2,2,2-trifluoroethyl]-N-methyl-8,8-dioxo-8λ^6-thiabicyclo[3.2.1]octane-3-carboxamide] here?
The IC50 was 0.09 µM.

What about the IC50 ([2]; T-cell) of the same compound?
The IC50 was 0.092 µM.

How did the IC50 [1] turn out when `COc1cc([C@H](N(C)C(=O)C2CCS(=O)(=O)CC2)C(F)(F)F)ccc1N1CCCc2c1cnc1cc(Cl)nn21` [CPD0073040, N-[(1S)-1-(4-{4-chloro-2,3,7,10-tetraazatricyclo[7.4.0.0^2,6]trideca-1(9),3,5,7-tetraen-10-yl}-3-methoxyphenyl)-2,2,2-trifluoroethyl]-N-methyl-1,1-dioxo-1λ^6-thiane-4-carboxamide] was run?
The IC50 was 0.368 µM.

What about the IC50 ([2]; T-cell) of the same compound?
The IC50 was 0.642 µM.

What does the source list for `CN(C(=O)C1CCS(=O)(=O)CC1)[C@@H](c1ccc(N2CCCc3c2cnc2cc(Cl)nn32)cc1)C(F)F` [CPD0073041, N-[(1S)-1-(4-{4-chloro-2,3,7,10-tetraazatricyclo[7.4.0.0^2,6]trideca-1(9),3,5,7-tetraen-10-yl}phenyl)-2,2-difluoroethyl]-N-methyl-1,1-dioxo-1λ^6-thiane-4-carboxamide]?
IC50 [1]: 0.432 µM; IC50 ([2]; T-cell): 5.78 µM

How did the IC50 [1] turn out when `CN(C(=O)C1CCS(=O)(=O)CC1)[C@@H](c1ccc(N2CCCc3c2cnc2cc(Cl)nn32)cn1)C(F)(F)F` [CPD0073056, N-[(1S)-1-[5-(4-chloro-2,3,7,10-tetrazatricyclo[7.4.0.0^2,6]trideca-1(9),3,5,7-tetraen-10-yl)-2-pyridyl]-2,2,2-trifluoro-ethyl]-N-methyl-1,1-dioxo-thiane-4-carboxamide] was run?
Its IC50 is 0.197 µM.

And the IC50 ([2]; T-cell)?
The IC50 was 0.78 µM.

Which results are given for `CN(C(=O)C1COC1)[C@@H](c1ccc(N2CCCc3c2cnc2cc(Cl)nn32)cc1)C(F)(F)F` [CPD0073083, N-[(1S)-1-(4-{4-chloro-2,3,7,10-tetraazatricyclo[7.4.0.0^2,6]trideca-1(9),3,5,7-tetraen-10-yl}phenyl)-2,2,2-trifluoroethyl]-N-methyloxetane-3-carboxamide]?
IC50 [1]: 0.09 µM; IC50 ([2]; T-cell): 0.146 µM

Which IC50 [1] does the source give for `CN(C(=O)N1CCOCC1)[C@@H](c1ccc(N2CCCc3c2cnc2cc(Cl)nn32)cc1)C(F)(F)F` [CPD0073084, N-[(1S)-1-(4-{4-chloro-2,3,7,10-tetraazatricyclo[7.4.0.0^2,6]trideca-1(9),3,5,7-tetraen-10-yl}phenyl)-2,2,2-trifluoroethyl]-N-methylmorpholine-4-carboxamide] here?
Its IC50 is 0.168 µM.

What about the IC50 ([2]; T-cell) of the same compound?
Its IC50 is 0.255 µM.

How did the IC50 [1] turn out when `CN(C(=O)CN1CCCS1(=O)=O)[C@@H](c1ccc(N2CCCc3c2cnc2cc(Cl)nn32)cc1)C(F)(F)F` [CPD0073085, N-[(1S)-1-(4-{4-chloro-2,3,7,10-tetraazatricyclo[7.4.0.0^2,6]trideca-1(9),3,5,7-tetraen-10-yl}phenyl)-2,2,2-trifluoroethyl]-2-(1,1-dioxo-1λ^6,2-thiazolidin-2-yl)-N-methylacetamide] was run?
Its IC50 is 0.154 µM.

What about the IC50 ([2]; T-cell) of the same compound?
The IC50 was 0.286 µM.

With `CN(C(=O)C12CN(C1)S(=O)(=O)C2)[C@@H](c1ccc(N2CCCc3c2cnc2cc(Cl)nn32)cc1)C(F)(F)F` [CPD0073087, N-[(1S)-1-(4-{4-chloro-2,3,7,10-tetraazatricyclo[7.4.0.0^2,6]trideca-1(9),3,5,7-tetraen-10-yl}phenyl)-2,2,2-trifluoroethyl]-N-methyl-2,2-dioxo-2λ^6-thia-1-azabicyclo[2.1.1]hexane-4-carboxamide] as the compound, how does the IC50 [1] read?
The IC50 was 0.078 µM.

And the IC50 ([2]; T-cell)?
Its IC50 is 0.103 µM.
